This is an account of results in patent US20220089600A1, “TGFß INHIBITOR AND PRODRUGS” (FUNDACIÓ INSTITUT DE RECERCA BIOMÈDICA (IRB BARCELONA), priority 2018, published 2022).

In data set [1] the target is T1, Cre-ER^T2 fusion protein in MEFs (Homo sapiens, UniProt P03372, G400V/L544A/M543A/V595A).
T1 construct: Cre recombinase (fusion partner); host or cells: mouse embryonic fibroblasts from UbC-Cre-ER^T2; mTmG transgenic mice; the other entry of the earlier key: cre (P06956, Recombinase cre)
T1 sequence (P03372 with tags, fused parts or gaps G400V/M543A/L544A/V595A): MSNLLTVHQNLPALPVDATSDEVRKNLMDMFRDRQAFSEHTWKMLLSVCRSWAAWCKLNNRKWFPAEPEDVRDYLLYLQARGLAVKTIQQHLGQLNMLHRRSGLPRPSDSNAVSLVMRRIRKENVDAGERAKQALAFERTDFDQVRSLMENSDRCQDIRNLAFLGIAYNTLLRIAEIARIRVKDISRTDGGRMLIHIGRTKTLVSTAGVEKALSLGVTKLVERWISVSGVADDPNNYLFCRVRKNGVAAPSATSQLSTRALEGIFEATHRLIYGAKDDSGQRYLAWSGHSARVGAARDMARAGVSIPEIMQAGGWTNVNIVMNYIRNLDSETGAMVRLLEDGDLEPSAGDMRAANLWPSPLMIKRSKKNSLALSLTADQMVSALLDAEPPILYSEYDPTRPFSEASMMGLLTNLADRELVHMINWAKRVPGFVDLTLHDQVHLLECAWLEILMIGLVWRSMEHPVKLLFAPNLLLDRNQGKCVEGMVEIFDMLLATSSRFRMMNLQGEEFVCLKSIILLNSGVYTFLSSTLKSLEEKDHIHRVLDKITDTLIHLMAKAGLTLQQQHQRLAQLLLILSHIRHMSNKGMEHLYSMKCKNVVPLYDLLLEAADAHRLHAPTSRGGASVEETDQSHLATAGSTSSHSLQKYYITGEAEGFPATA
The experiment in a line: Co-culture MEF recombination assay (mTmG reporter, FACS). In kind it is cell-based, mouse.
From the text: The mouse model carries recombination reporter mTmG (JAX stock: 007676). This system expresses the membrane bound tdTomato (tandem dimer tomato; mT stands for membrane Tomato), which is a red fluorescent protein. Upon recombination with an activated Cre enzyme, the coding sequence for mT as well as a stop codon, being between loxP sites, is excised. […] Effectively this means that in the presence of a Cre enzyme, or in the presence of a 4-OHT activated Cre-ER^T2 fusion protein, the cells stop their production of tdTomato and proceed to express the EGFP; this genetic switch can be efficiently quantified by flow cytometry analysis. The mouse strain expressing mTmG was then crossed to a mouse carrying a Cre-ER^T2 fusion protein in all cells (UbC-Cre-ER^T2; Jax Stock: 008085). From the dual transgenic mouse, as well as from the reporter strain without Cre-ER^T2, MEFs were harvested from 14-day-old embryos. Briefly, pregnant females were sacrificed 14 days after plug formation, uteri were removed, and embryos were dissected: heads and fetal livers were discarded. The rest was minced and digested with trypsin and grown in 10-cm plates with aforementioned supplemented DMEM.
MEF recombination: MTO129, transduced with pLenti PGK-LigF (puro) or with an equivalent empty vector was trypsinized and single cells added onto UbC-Cre-ER^T2; mTmG (or control mTmG-only) MEFs grown in 12-well plates. The next day, either Z-4-OHT or the prodrug of formula VII was added in concentrations ranging from 1000 to 1 nM. Two days later, cells were trypsinized and analyzed by flow cytometry for TdTomato/EGFP fluorescence (Gallios, Beckman Coulter). Fluorescence was analyzed on viable cells in 2 dimensions and scored as percentages in the 4 quadrants. EGFP positive quadrants (Q2 and Q4, with or without TdTomato) were considered recombined and the fraction of the total was calculated. Data are the average (+SD) from two independent experiments.

Data set [2] has as its system NTCF4-ER^T2 fusion protein in LS174T cells. In words: Co-culture LS174T-NTCF4-ER^T2 gene expression assay. In kind it is cell-based. Particulars: 16h.
Method: These LS-NE cells were cultured in DMEM supplemented with L-glutamine and 10% fetal bovine serum (Life Technologies) at 37° C. and 5% CO2.
HEK293T cells transduced with pLenti PGK-LigF (puro) or with an equivalent empty vector were co-plated with LS174T-NTCF4-ER^T2 (LS-NE) cells, in a ratio of 1/10 in 6-well plates. Co-cultures were treated with DMSO, 1 μM Z-4-OHT or the prodrug of formula VII at 1 or 10 μM. After 16h, cells were lysed in trizol for RNA extraction (PureLink RNA Mini Kit, Life Technologies) and cDNA preparation (High Capacity cDNA RT kit, Applied Biosysytems). […] Data in FIG. 11 were normalized to the housekeeping gene, and to DMSO controls. Data are the average of technical replicates (+SD) from a single experiment.
Data set [3] has as its target T2, human ALK5 (Homo sapiens, UniProt P36897).
T2 construct: purchased Eurofins (Kinase Profiler service)
T2 sequence (P36897 34-503): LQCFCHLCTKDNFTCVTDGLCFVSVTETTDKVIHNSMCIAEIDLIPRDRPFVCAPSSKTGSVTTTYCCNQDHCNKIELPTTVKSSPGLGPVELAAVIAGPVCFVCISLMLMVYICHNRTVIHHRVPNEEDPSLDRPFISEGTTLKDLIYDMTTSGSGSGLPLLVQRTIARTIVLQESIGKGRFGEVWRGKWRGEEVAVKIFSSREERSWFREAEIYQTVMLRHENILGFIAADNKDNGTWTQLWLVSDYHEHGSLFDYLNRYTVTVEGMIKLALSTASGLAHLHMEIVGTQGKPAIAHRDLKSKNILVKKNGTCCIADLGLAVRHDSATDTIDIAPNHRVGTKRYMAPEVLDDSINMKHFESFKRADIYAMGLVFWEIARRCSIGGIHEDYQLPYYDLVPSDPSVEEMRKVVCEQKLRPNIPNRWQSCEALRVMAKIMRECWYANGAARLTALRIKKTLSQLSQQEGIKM
The experiment in a line: KinaseProfiler enzymatic activity inhibition. Type of data set: biochemical. Particulars: KinaseProfiler, 9-point curve, top 10 μM; read-out: Enzyme activity inhibition IC50 (nM) ALK5 (TGFBR1). As for the experimental part:
Briefly, human ALK5 was incubated with 8 mM MOPS pH 7.0, 0.2 mM EDTA, 1 mM MnCl2, 2 mg/mL casein, 10 mM MgAcetate and [γ-33P-ATP] (specific activity approx. 500 cpm/pmol, concentration as required). The reaction was initiated by the addition of the MgATP mix. After incubation for 40 minutes at room temperature, the reaction was stopped by the addition of a 3% phosphoric acid solution. 10 μL of the reaction was then spotted onto a P30 filtermat and washed three times for 5 minutes in 75 mM phosphoric acid and once in methanol prior to drying and scintillation counting.
Compounds were tested using a 9-point curve with half-Log serial dilutions. The top concentration tested was 10 μM. Test compounds were prepared in 100% DMSO.

For data set [4], the system named is MTO129 liver metastases. In words: Mouse liver metastasis initiation/formation assay with MTOs. In kind it is in vivo. The settings on record: FIG. 13, 1× dose. The source says:
Mouse tumor organoids (MTOs) are derived from compound transgenic mice (conditional mutations in Apc, Kras, Trp53 and Tgfbr2, as well as bearing Lgr5-EGFP/CreER^T2) of the C57BL6/J strain and cultured as described in Tauriello et al. 2018 Nature 554(7693): 538-543. doi: 10.1038/nature25492. Organoids are tumor epithelial cells grown in a 3D matrix where they adopt an organotypic architecture, typically as spheroids with a lumen. In this way, cells retain a relatively normal polarity (which means that the outside surface, inside/luminal surface and cell-cell contacts are individually specialized), which is more physiological than in conventional 2D cell culture.
In all experiments described in present invention MTO129 were used (Tauriello et al. Nature. 2018).
In patients, treatment doses were reduced to 80 to 150 mg b.i.d in a regime of 14 days on-14 days off.
MTOs expressing a luciferase reporter were measured by bioluminescence imaging, using retroorbital injection of 50 μl 15 mg/ml D-luciferin potassium salt (Resem BV). Photons per second from the region spanning thorax/abdomen were quantified and normalized to the measure at the day of injection.
Control mice were treated with 150 μl of vehicle.
In the experiment shown in FIG. 13, potency of the indicated compounds to inhibit metastasis formation was assessed. Mice were treatments with indicated compounds started two days after MTO129 transplantation and continued during two weeks. Mice were sacrificed at 4 weeks post transplantation and liver metastases (LiMs) were counted by eye on fixed livers.

In data set [5] the target is T3, LigF (Sphingobium sp., UniProt P30347).
T3 construct: made in house; host or cells: E. coli BL21 (DE3) Rosetta lysS
T3 sequence (P30347 1-257): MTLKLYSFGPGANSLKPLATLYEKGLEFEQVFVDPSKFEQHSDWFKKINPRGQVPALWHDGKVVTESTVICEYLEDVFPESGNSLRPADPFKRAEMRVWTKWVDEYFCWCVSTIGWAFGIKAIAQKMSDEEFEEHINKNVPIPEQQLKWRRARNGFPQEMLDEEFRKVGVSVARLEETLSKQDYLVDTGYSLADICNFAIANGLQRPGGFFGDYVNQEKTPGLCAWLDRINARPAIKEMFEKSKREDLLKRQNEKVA
In words: In vitro LigF cleavage of prodrug, HPLC-MS/MS. In kind it is biochemical, Sphingobium sp. strain SYK-6. Particulars: 37° C. The method, then:
Similar to the in vitro assay in 5.2., the compound of formula VII was diluted from a 30 mM stock solution in DMSO to 50 μM in 20 mM Tris-HCl (pH 7.5), 1 mM glutathione and 15 μg/ml LigF was added. However, the reaction mixture was incubated at 37° C. and the read-out was different: using HPLC-MS/MS. Reaction samples, as well as a control sample without enzyme and Z-4-OHT (4-hydroxytamoxifen) as a standard were diluted 2:3 in MeOH and 2 μl was injected onto a BioBasic C18 column (5 μm, 2.1×150 mm, Thermo; using a Thermo EC Finnigan Mod Micro AS autosamples and Thermo EC Quarternary pump, Finnigan Mod. Surveyor MS chromatograph) with a water-MeOH gradient (60-90% MeOH in 30 min; 90-100% in 5 min; 100 μl/min flow rate). LC-MS coupling was performed with the Advion Triversa Nanomate (Advion BioSciences, Ithaca, N.Y., USA) as the nanoESI source performing nanoelectrospray through chip technology. The Nanomate was attached to an LTQ-FT Ultra mass spectrometer and operated at a spray voltage of 1.7 kV and a delivery pressure of 0.5 psi in positive mode. In a LTQ-FT Ultra (Thermo Scientif) mass spectrometer, analyses were performed using 40V capillary voltage and 120V tube lens voltage. MS/MS was operated in a data-dependent acquisition (DDA) mode and in selected reaction monitoring (SRM) mode. Survey MS scans were acquired in the FT with the resolution (defined at 400 m/z) set to 100,000. Up to six of the most intense ions per scan were fragmented and detected in the linear ion trap. The ion count target value was 1,000,000 for the survey scan and 50,000 for the MS/MS scan. Target ions already selected for MS/MS were dynamically excluded for 30 s. For SRM, maximum injective was set to 400 ms and 2 microscans average.
Data are represented as XIC (extracted ion chromatogram) peak areas of parallel reaction monitoring (PRM) transitions, using QuanBrowser (Xcalibur software 2.0SR2).

In data set [6] the target is T4, Cre-ER^T2 fusion protein (Homo sapiens, UniProt P03372, G400V/L544A/M543A/V595A).
T4 construct: Cre recombinase (fusion partner); tissue Jax Stock: 008085; host or cells: liver of transgenic UbCre-ER^T2; mTmG mice (transgene product); the other entry of the earlier key: cre (P06956, Recombinase cre)
The experiment in a line: In vivo gene recombination in UbCre-ER^T2; mTmG mice (EGFP immunohistochemistry). Set-up: species or system mouse. The method, then: Using the UbCre-ER^T2; mTmG mice described in example 6, we treated these animals with the prodrug of formula VII at 1 or 5 μmol (approximately 0.6 or 3 mg, respectively) or with a vehicle control (oil). Five days after treatment, mice were sacrificed, and the liver was fixed overnight in 10% phosphate-buffered formalin (sigma) and embedded in paraffin, similar to the description of example 3 (FIG. 1).

Setting [7] is: UbC-Cre-ER^T2, mTmG MEFs with LigF-expressing MTO129, 1000 to 1 nM, two days.

Regarding “4-hydroxytamoxifen [4-OHT, reference compound]”, in data set [1] (setting [7]), the “gene recombination in MEFs (fraction EGFP positive)” value is “dose-dependent gene recombination”. Further, in data set [2] (HEK293T negative for LigF, 1 μM), the “transcriptional switch (KRT20 up, ASCL2 down)” value is recorded as “able to induce the transcriptional switch”.

`COc1cc(C(=O)COc2ccc3nccc(-c4c(-c5cccc(C)n5)nn5c4CCC5)c3c2)ccc1O` [prodrug of formula III, 1-(4-hydroxy-3-methoxyphenyl)-2-((4-(2-(6-methylpyridin-2-yl)-5,6-dihydro-4H-pyrrolo[1,2-b]pyrazol-3-yl)quinolin-6-yl)oxy)ethan-1-one]: the IC50 in data set [3] stood at 836 nM.

As to `Cc1cccc(-c2nn3c(c2-c2ccnc4cc(O)ccc24)CCC3)n1` [Reference compound 338, 4-[2-(methyl-pyridin-2-yl) 5,6-dihydro-4H-pyrrolo[1,2-b]pyrazol-3-yl]-quinolin-7-ol, reference compound], in data set [3], the IC50 stood at 371 nM.

As for `Oc1ccc2c(-c3c(-c4ccccn4)nn4c3CCC4)ccnc2c1` [Reference compound 337, 4-(2-pydridin-2-yl-5,6-dihydro-4H-pyrrolo[1,2-b]pyrazol-3-yl)-quinolin-7-ol, reference compound], the half-inhibitory concentration (IC50) in data set [3] was determined as 320 nM.

As to `Cc1cccc(-c2nn3c(c2-c2ccnc4ccc(OC(=O)N5CCC(N6CCCCC6)CC5)cc24)CCC3)n1` [prodrug of formula IV, 4-(2-(6-methylpyridin-2-yl)-5,6-dihydro-4H-pyrrolo[1,2-b]pyrazol-3-yl)quinolin-6-yl [1,4′-bipiperidine]-1′-carboxylate], the IC50 in data set [3] came to 2280 nM. Also, in data set [4], the “activity in preventing liver metastasis formation, in words” value was “more robustly than galunisertib”.

Take `CCC(=C(c1ccc(OCCN(C)C)cc1)c1ccc(OCC(=O)c2ccc(O)c(OC)c2)cc1)c1ccccc1` (racemic) [prodrug of formula VII, 2-(4-(1-(4-(2-(dimethylamino)ethoxy)phenyl)-2-phenylbut-1-en-1-yl)phenoxy)-1-(4-hydroxy-3-methoxyphenyl)ethan-1-one]: in data set [5] (50 μM, 15 μg/ml LigF), the cleavage plateau worked out at 50%, the “time to half way to the plateau” value was found to be 3 h and the “time to reach cleavage plateau” value was “approximately 30 hours”. The “stability in control without LigF” value in data set [5] (all other components present) is listed as “remained intact”. For the same compound, in data set [1] (setting [7]), the “gene recombination in MEFs (fraction EGFP positive)” value was “very similar to 4-OHT”. The “gene recombination in MEFs (fraction EGFP positive)” value in data set [1] (without LigF etherase (printed: MEFs lacking UbC-ER^T2)) is on record as “only some recombination at the highest dose”. Further, the “transcriptional switch (KRT20 up, ASCL2 down)” value in data set [2] (HEK293T-LigF, 10 μM) is “achieved the same response”. In addition, the “gene recombination and EGFP expression in liver” value in data set [6] (1 or 5 μmol, five days after treatment) was “dose-dependent activation of gene recombination and EGFP expression”. Moreover, the “gene recombination in peripheral tissues compared to the liver” value in data set [6] (Example 7 mouse treatment) is given as “lower”.
